US11083726B2, “Methods and compositions for treating vasomotor symptoms” (UNIVERSITY OF WASHINGTON THROUGH ITS CENTER FOR …, priority 2012, dated 2021)

Tested on: LH secretion
Test: LH secretion in ovariectomized mice after i.p. injection of a PRKA (serum LH by radioimmunoassay)
Type: in vivo
Procedure: Female mice (000664 C57BL/6J) were obtained from The Jackson Laboratory (Sacramento, Calif., USA) at 8 weeks of age. All animals were housed on a 12:12-h light-dark cycle (lights off at 1800) with food and water available ad libitum. All experiments were conducted in accordance with the National Institutes of Health (NIH) Animal Care and Use Guidelines and with approval of the Animal Care and Use Committee of the University of Washington.
Mice were ovariectomized 13 days prior to the experiment, which occurred at approximately 11 weeks of age. Mice were anesthetized with isoflurane and bilaterally ovariectomized (OVX). Briefly, the animal's ventral skin was shaved and cleaned, and small incisions were made in the skin and abdominal musculature. The gonads were identified and excised, the abdominal muscle was sutured, and the skin incision was closed with surgical clips.
Mice were injected i.p. (<500 μl) with vehicle [0.9% sterile saline (Hospira, Lake Forest, Ill., USA) with 3.6% sterile DMSO (Sigma Aldrich, Inc., St. Louis, Mo., USA), n=7] or the following doses of the PRKA, ICI204,448 hydrochloride (Tocris Bioscience, Bristol, UK), diluted in sterile saline/DMSO: 0.1 mg/kg (0.018% DMSO, n=6), 1 mg/kg (0.18% DMSO, n=4), 10 mg/kg (1.8% DMSO, n=5), or 20 mg/kg (3.6% DMSO, n=7). N.B. 1 mg/kg and 10 mg/kg groups run in different experiment/assay. […]

CN(C(=O)Cc1ccc(Cl)c(Cl)c1)C(CN1CCCC1)c1cccc(OCC(=O)O)c1.Cl (racemic) [ICI 204,448 hydrochloride, (RS)-[3-[1-[[(3,4-Dichlorophenyl)acetyl]methylamino]-2-(1-pyrrolidinyl)ethyl]phenoxy]acetic acid hydrochloride]
LH secretion (FIG. 2) (mice, 0.1, 1, 10, 20 mg/kg i.p., 1 mg/kg and 10 mg/kg in different experiment/assay): dose-dependent decrease | LH post injection (ovariectomized mice, High Dose 20 mg/kg i.p., 20 minutes after injection, vs. Low Dose 0.1 mg/kg (P<0.01) and Vehicle (P<0.001)): significantly decreased
